Measurements from patent US9434711B2 (Janssen Pharmaceutica, NV, priority 2007, dated 2016).
Where two headings read alike, the source gives them in different places.

Biological target: canine TRPM8 (Canis lupus familiaris, UniProt Q1A7N1)
Experiment: In Vitro Canine TRPM8 Functional Assay (Ca2+ fluorescence, icilin activation)
Format: cell-based
Conditions: for IC50: read-out: IC50; for inhibition at 0.2 µM: read-out: % Inh @ 0.2; for inhibition at 0.5 µM: compound at 0.5 μM, read-out: % Inh @ 0.5
Procedure, shortened: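 HEK293 cells stably expressing canine TRPM8 loaded with Calcium 3 dye; compound added and Ca2+ fluorescence monitored 5 min before icilin at a final level giving ~80% maximal response, read on FLIPR or FDSS. EC50 or IC50 from eight-point dose-response, quadruplicate wells per point.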

[1] = HEK293 cells stably expressing canine TRPM8, icilin activation, eight-point dose-response
[2] = compound at 0.2 μM, canine TRPM8, icilin activation
[3] = 0.2 μM compound, HEK293 cells stably expressing canine TRPM8, icilin activation
[4] = HEK293 cells stably expressing canine TRPM8, icilin activation, average of two or more determinations
[5] = canine TRPM8, icilin activation

Chain of canine TRPM8 (Q1A7N1 1-1104): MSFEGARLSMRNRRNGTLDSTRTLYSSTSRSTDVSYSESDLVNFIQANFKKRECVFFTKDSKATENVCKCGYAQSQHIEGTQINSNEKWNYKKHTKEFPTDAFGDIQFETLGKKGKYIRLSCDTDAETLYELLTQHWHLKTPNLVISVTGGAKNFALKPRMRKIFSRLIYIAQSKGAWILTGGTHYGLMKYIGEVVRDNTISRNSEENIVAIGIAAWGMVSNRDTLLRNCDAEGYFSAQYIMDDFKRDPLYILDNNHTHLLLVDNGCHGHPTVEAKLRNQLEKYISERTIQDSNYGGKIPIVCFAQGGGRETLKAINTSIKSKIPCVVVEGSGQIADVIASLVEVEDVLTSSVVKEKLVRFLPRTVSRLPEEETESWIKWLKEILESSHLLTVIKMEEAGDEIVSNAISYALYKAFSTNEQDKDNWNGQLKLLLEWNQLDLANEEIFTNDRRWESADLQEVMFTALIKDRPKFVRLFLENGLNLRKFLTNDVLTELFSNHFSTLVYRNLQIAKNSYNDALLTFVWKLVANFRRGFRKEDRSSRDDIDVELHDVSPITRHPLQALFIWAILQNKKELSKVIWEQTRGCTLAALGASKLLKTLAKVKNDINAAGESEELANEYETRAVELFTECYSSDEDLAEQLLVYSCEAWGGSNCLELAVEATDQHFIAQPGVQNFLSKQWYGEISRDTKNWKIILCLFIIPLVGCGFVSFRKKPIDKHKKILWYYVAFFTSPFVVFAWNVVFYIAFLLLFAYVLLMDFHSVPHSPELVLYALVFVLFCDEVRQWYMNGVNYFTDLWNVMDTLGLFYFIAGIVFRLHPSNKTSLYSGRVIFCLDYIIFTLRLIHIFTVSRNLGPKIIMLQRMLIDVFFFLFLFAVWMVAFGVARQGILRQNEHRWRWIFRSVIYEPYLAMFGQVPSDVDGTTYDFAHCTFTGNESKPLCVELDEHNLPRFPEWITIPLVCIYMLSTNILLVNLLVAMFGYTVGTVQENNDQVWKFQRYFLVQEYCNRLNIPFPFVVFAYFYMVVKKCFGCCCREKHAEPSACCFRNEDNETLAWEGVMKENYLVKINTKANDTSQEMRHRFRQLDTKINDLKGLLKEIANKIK

Row | IC50 [1] [nM] | inhibition at 0.2 µM [2] [%] | SMILES | further results
1 | 36 | 95 | COC(=O)c1cccc(CN(c2sc3ccccc3c2Br)S(=O)(=O)c2cccnc2)c1 [Compound 405, N-(3-Bromo-benzo[b]thiophen-2-yl)-N-(3-carbomethoxy-benzyl)-pyridin-3-ylsulfonamide] | –
2 | – | 26 | CN1CCN(C2=C(N(Cc3ccc(F)c(C(F)(F)F)c3)S(=O)(=O)c3ccccc3)S(=O)(=O)c3ccccc32)CC1 [Compound 649, N-(4-Fluoro-3-trifluoromethyl-benzyl)-N-[3-(4-methyl-piperazin-1-yl)-1,1-dioxo-benzo[b]thiophen-2-yl]-benzenesulfonamide] | –
3 | 4 | 101 | COC(C)(C)CCN(c1sc2ccccc2c1Br)S(=O)(=O)c1ccc(C(=O)O)cc1 [Compound 454, N-(3-Bromo-benzo[b]thiophen-2-yl)-N-(3-methoxy-3-methylbutyl)-4-carboxy-benzenesulfonamide] | –
4 | 5 | 92 | COC(=O)c1ccc(S(=O)(=O)N(Cc2ccc(F)c(C(F)(F)F)c2)c2sc3ccccc3c2C(C)(C)O)cc1 [Compound 415, N-(4-Fluoro-3-trifluoromethylbenzyl)-N-(3-(1-hydroxy-1-methyl-ethyl)-benzo[b]thiophen-2-yl)-4-carbomethoxy-benzenesulfonamide] | –
5 | 35 | 86 | CCCCN(c1sc2ccccc2c1C(C)=O)S(=O)(=O)CC [Compound 121, N-(3-Acetyl-benzo[b]thiophen-2-yl)-N-(butyl)-ethanesulfonamide] | –
6 | – | – | O=S(=O)(c1ccccc1)N(CCCF)c1sc2ccccc2c1CO [Cpd 820] | % Inh @ 0.2 (μM) [3]: 102%; IC50 [4]: 28 nM
7 | – | 50 | NS(=O)(=O)N(Cc1ccc(F)c(C(F)(F)F)c1)c1sc2ccccc2c1Cl [Compound 302, N-(3-Chloro-benzo[b]thiophen-2-yl)-N-(4-fluoro-3-trifluoromethyl-benzyl)-sulfamide] | –
8 | – | 54 | COC(=O)c1ccc(S(=O)(=O)N(CCCC(F)(F)F)c2sc3ccccc3c2Cl)cc1 [Compound 530, N-(3-Chloro-benzo[b]thiophen-2-yl)-N-(4,4,4-trifluoro-butyl)-4-carbomethoxy-benzenesulfonamide] | –
9 | 5 | 103 | Nc1ccc(S(=O)(=O)N(CCCCC(F)(F)F)c2sc3ccccc3c2Br)cc1 [Compound 668, 4-Amino-N-(3-bromo-benzo[b]thiophen-2-yl)-N-(5,5,5-trifluoro-pentyl)-benzenesulfonamide] | –
10 | 35 | 94 | Cc1c(N(Cc2ccc(F)c(C(F)(F)F)c2)S(=O)(=O)c2cn(C)nc2C(F)(F)F)sc2ccccc12 [Compound 328, N-(3-Methyl-benzo[b]thiophen-2-yl)-N-(4-fluoro-3-trifluoromethyl-benzyl)-1-methyl-3-trifluoromethyl-1H-pyrazol-4-ylsulfonamide] | –
11 | 78.2 | – | O=S(=O)(c1ccccc1)N(Cc1ccc(F)c(F)c1)c1cc2cccnc2s1 [Compound 147, N-(3,4-Difluoro-benzyl)-N-thieno[2,3-b]pyridin-2-yl-benzenesulfonamide] | inhibition at 0.5 µM [5]: 96%
12 | 3.9 | – | O=S(=O)(c1cccs1)N(Cc1ccc(F)c(C(F)(F)F)c1)c1sc2ccccc2c1Br [Compound 184, N-(3-Bromo-benzo[b]thiophen-2-yl)-N-(4-fluoro-3-trifluoromethyl-benzyl)-thiophene-2-sulfonamide] | inhibition at 0.5 µM [5]: 97%
13 | – | – | CCS(=O)(=O)N(Cc1ccnc(F)c1)c1sc2ccccc2c1C(C)(C)O [Compound 836, N-(2-Fluoro-pyridin-4-ylmethyl)-N-[3-(1-hydroxy-1-methyl-ethyl)-benzo[b]thiophen-2-yl]-ethanesulfonamide] | inhibition at 0.2 µM [3]: 96%; IC50 [4]: 24 nM
14 | 14 | 100 | CS(=O)(=O)N(Cc1ccc(F)c(C(F)(F)F)c1)c1sc2ccccc2c1Br [Compound 157, N-(3-Bromo-benzo[b]thiophen-2-yl)-N-(4-fluoro-3-trifluoromethyl-benzyl)-methanesulfonamide] | –
15 | 5.3 | 101 | Cc1c(N(CCCCC(F)(F)F)S(=O)(=O)c2ccc(N(C)C)cc2)sc2ccccc12 [Compound 748, N-(3-Methyl-benzo[b]thiophen-2-yl)-N-(5,5,5-trifluoro-pentyl)-4-dimethylamino-benzenesulfonamide] | –
16 | 51 | 80 | O=S(=O)(CC(F)(F)F)N(Cc1ccc(F)c(C(F)(F)F)c1)c1sc2ccccc2c1Cl [Compound 703, N-(3-Chloro-benzo[b]thiophen-2-yl)-N-(4-fluoro-3-trifluoromethyl-benzyl)-2,2,2-trifluoro-ethanesulfonamide] | –

Row | IC50 [1] [nM] | inhibition at 0.2 µM [2] [%] | SMILES | further results
17 | 55.4 | – | COc1ccc(Br)cc1CN(c1sc2ccccc2c1Br)S(=O)(=O)c1ccccc1 [Compound 161, N-(3-Bromo-benzo[b]thiophen-2-yl)-N-(5-bromo-2-methoxy-benzyl)-benzenesulfonamide] | inhibition at 0.5 µM [5]: 95%
18 | 5 | 102 | CS(=O)(=O)Nc1ccc(S(=O)(=O)N(CCC2CC2)c2sc3ccccc3c2Br)cc1 [Compound 717, N-(3-Bromo-benzo[b]thiophen-2-yl)-N-(2-cyclopropyl-ethyl)-4-methanesulfonylamino-benzenesulfonamide] | –
19 | 18.3 | 101 | Cc1c(N(Cc2ccc(F)c(C(F)(F)F)c2)S(=O)(=O)CCCC(C)(C)O)sc2ccccc12 [Compound 759, N-(4-Fluoro-3-trifluoromethyl-benzyl)-N-(3-methyl-benzo[b]thiophen-2-yl)-4-hydroxy-4-methyl-pentane-1-sulfonamide] | –
20 | 8 | 99 | COC(=O)c1ccccc1S(=O)(=O)N(Cc1ccc(F)c(C(F)(F)F)c1)c1sc2ccccc2c1Cl [Compound 196, N-(3-Chloro-benzo[b]thiophen-2-yl)-N-(4-fluoro-3-trifluoromethyl-benzyl)-2-carbomethoxy-benzenesulfonamide] | –
21 | 12 | 96 | CS(=O)(=O)N(Cc1ccc(F)c(C(F)(F)F)c1)c1sc2ccccc2c1C=O [Compound 208, N-(4-Fluoro-3-trifluoromethyl-benzyl)-N-(3-formyl-benzo[b]thiophen-2-yl)-methanesulfonamide] | –
22 | – | – | O=S(=O)(c1ccccc1)N(Cc1ccncc1)c1cc2ccccc2s1 [Compound 54, N-(Benzo[b]thiophen-2-yl)-N-(pyridin-4-ylmethyl)-benzenesulfonamide] | inhibition at 0.5 µM [5]: 65%
23 | 25.5 | 99 | CCN(c1sc2ccccc2c1Br)S(=O)(=O)c1ccccc1 [Compound 247, N-(3-Bromo-benzo[b]thiophen-2-yl)-N-(ethyl)-benzenesulfonamide] | –
24 | 44.5 | – | O=S(=O)(c1ccccc1)N(Cc1ccncc1)c1sc2ccccc2c1Br [Compound 170, N-(3-Bromo-benzo[b]thiophen-2-yl)-N-(pyridin-4-ylmethyl)-benzenesulfonamide] | inhibition at 0.5 µM [5]: 97%
25 | 12.1 | 101 | Nc1ccc(S(=O)(=O)N(CCC(F)(F)F)c2sc3ccccc3c2Br)cc1Br [Compound 588, 4-Amino-3-bromo-N-(3-bromo-benzo[b]thiophen-2-yl)-N-(3,3,3-trifluoro-propyl)-benzenesulfonamide] | –
26 | 24 | – | O=S(=O)(c1ccccc1)N(Cc1ccc(F)c(F)c1)c1cc2ccccc2s1 [Compound 1, N-Benzo[b]thiophen-2-yl-N-(3,4-difluoro-benzyl)-benzenesulfonamide] | inhibition at 0.5 µM [5]: 100%
27 | 164 | – | O=S(=O)(c1ccccc1)N(Cc1cccnc1)c1cc2ccccc2s1 [Compound 53, N-(Benzo[b]thiophen-2-yl)-N-(pyridin-3-ylmethyl)-benzenesulfonamide] | inhibition at 0.5 µM [5]: 97%
28 | – | 29 | N#Cc1cccc(S(=O)(=O)N(Cc2ccc(F)c(C(F)(F)F)c2)c2cc3ccccc3s2)c1 [Compound 370, N-(Benzo[b]thiophen-2-yl)-N-(4-fluoro-3-trifluoromethyl-benzyl)-3-cyano-benzenesulfonamide] | –
29 | – | – | Cc1c(N(CCF)S(=O)(=O)c2ccc(F)c(F)c2)sc2ccccc12 [Compound 841, N-(2-Fluoro-ethyl)-N-(3-methyl-benzo[b]thiophen-2-yl)-3,4-difluoro-benzenesulfonamide] | inhibition at 0.2 µM [3]: 55%
30 | – | 57.7 | COC(=O)c1ccc(S(=O)(=O)N(CCC2CC2)c2sc3ccccc3c2C(C)C)cc1 [Compound 564, N-(2-Cyclopropyl-ethyl)-N-(3-isopropyl-benzo[b]thiophen-2-yl)-4-carbomethoxy-benzenesulfonamide] | –
31 | 6.6 | 101 | Cc1c(N(CCC2CC2)S(=O)(=O)c2ccc(-c3noc(=O)[nH]3)cc2)sc2ccccc12 [Compound 613, N-(3-Methyl-benzo[b]thiophen-2-yl)-N-(cyclopropyl-ethyl)-4-(5-oxo-4,5-dihydro-[1,2,4]oxadiazol-3-yl)-benzenesulfonamide] | –

Row | SMILES | IC50 [1] [nM] | inhibition at 0.2 µM [2] [%] | further results
32 | CC(C)(C)OC(=O)N1CCC(CN(c2sc3ccccc3c2Cl)S(=O)(=O)c2ccccc2)CC1 [Compound 90, N-(3-Chloro-benzo[b]thiophen-2-yl)-N-{[1-(carbo-tert-butoxy)piperidin-4-yl]-methyl}-benzenesulfonamide] | 21 | – | inhibition at 0.5 µM [5]: 99%
33 | O=S1NC(c2ccc(S(=O)(=O)N(CCC3CC3)c3sc4ccccc4c3Cl)cc2)=NO1 (centres unmarked) [Compound 625, N-(3-Chloro-benzo[b]thiophen-2-yl)-N-(cyclopropyl-ethyl)-4-(3H-[1,2,3,5]oxathiadiazole-2-oxide)-benzenesulfonamide] | 20.4 | – | % Inh @ 0.2 (μM) [2]: 103%
